Laboratory results: patent US10981858B2, “Dendrimer and formulations thereof” (Priostar Pty Ltd, priority 2015, dated 2021)

What was measured:
Assay type in all cases: physicochemical
[1] = Tebuconazole 600 SC formulation viscosity (Table 8); details: dendrimer 0.7%
Description: (§1) Formulations were prepared by mixing water, surfactant, dispersing agent, wetting agent and antifoam together then gradually adding active. High shear mix for 20-30 minutes to disperse formulation ingredients in water before adding the active and mixing until homogeneous. The mixture was milled on a Dyno bead mill (1 m/s) with 0.4-0.6 mm beads at max. 40° C. until particle size was <4 um. Dendrimer compound (in DEG) was added and stirred for 20 minutes. Thickener and antimicrobial was then added and stirred for 20 minutes. Formulations were deaerated by sonication.

[2] = Solubilization of water insoluble surfactant Ethoxylated Lauryl alcohol-3 M in LA-9 solution; details: for Quantity LA-3 added to LA-9 solution: 50 g, until hazy
Description: 5% w/w aqueous solution of Ethoxylated Lauryl alcohol-9 mole (water soluble surfactant) was prepared in Deionized water (2.5 g in 47.5 ml). Dendrimer compounds 1 and 4 were diluted 70:30 w/w in Diethylene glycol. The 5% Ethoxylated Lauryl alcohol-9 M (LA-9) solution was combined with dendrimer DEG solution at 90:10, 80:20 and 70:30 w/w (total weight 50 g).
Ethoxylated lauryl alcohol-3 mole (water insoluble surfactant) was added dropwise, while stirring, to the 50 g LA-9 solution (with or without dendrimer), until it became hazy. The weight of Ethoxylated lauryl alcohol-3 M added was recorded.

[3] = 2,4-D/dendrimer hard water testing (clarity, sedimentation); details: 30° C.; for Appearance at Addition / Appearance/Sedimentation After 24 Hrs.: 2,4-D Amine in 342 ppm hard water
Description: 342 ppm hard water was prepared as per CIPAC method MT18. The hard water was heated to 30° C. […]

[4] = Imidacloprid 700SC formulation viscosity and stability; details: Imidacloprid 700 g/L formulation, dendrimer 20 g/L
Description: Imidacloprid formulations were prepared by using high shear mixing to disperse formulation ingredients in 75% of the required water before adding the active and mixing until homogeneous. The mixture was milled on a bead mill (4 m/s) at 30-35° C. for 1 complete pass. Thickener, glycerine and residual water were then added under high shear mixing. Formulations were tested for viscosity (using a Brookfield LV viscometer) low temperature stability (0 C for 7 days) and RT stability. Many other dendrimers containing formulations prepared either solidified on milling or pre-milling Compound 4 reduced viscosity and provided greater formulation stability.

[5] = Tebuconazole 600 SC wetting study in hard water; details: one drop Tebuconazole 600 SC, dendrimer 0.7%, in 342 ppm hard water at 30° C.
Description: as §1
Wetting studies were conducted by placing one drop of Tebuconazole 600 SC formulation in 342 ppm hard water at 30° C. and recording the time when all the formulation particles were wet and dispersed in water.

Cloud point studies = details: 1 gm. dendrimer solution (70:30 w/w dendrimer:Diethylene Glycol) in 99 gm. of 10% NaOH solution
Description: 1 gm. of dendrimer solution (70:30 w/w dendrimer [Compound 1 or Compound 4]:Diethylene Glycol) was dissolved in 99 gm. of 10% NaOH solution in Deionized water and heated until hazy. Temperature of the solution was measured using calibrated thermometer.

[6] = Water value of dendrimers with solvent (Solvesso 200); details: 50 g aqueous solution, 7% dendrimer and 3% DEG; until hazy
Description: 50 g Aqueous solution of Dendrimer were prepared containing 7% dendrimer and 3% Diethylene glycol (DEG) by weight. Solvesso 200 (C10-13 aromatic hydrocarbon solvent) was added dropwise under stirring until the solution became hazy. Weight of Solvesso added was recorded.

[7] = Additional tebuconazole formulations: suspension stability and viscosity; details: additional tebuconazole formulation, 0.8% additive
Source text: Additional formulations were developed, and formulation characteristics were studied for suspension stability, and viscosity.

[8] = Tebuconazole 600 SC hard water testing: suspensibility, column thinning, sedimentation; details: 2 ml Tebuconazole 600 SC, dendrimer 0.7%, in 98 ml 342 ppm hard water, 30° C., 24 hours
Description: as §1
98 ml of 342 ppm hard water (prepared as per CIPAC method MT18) was heated to 30° C. before adding 2 ml. of Tebuconazole 600 SC formulation. Temperature was maintained at 30° C. for 24 hours and formulation characteristics were studied for suspension stability, wetting, column thinning/separation and sedimentation.

[9] = Solubilization of Methylated seed oil (MSO) in aqueous LA-9 solution; details: for Quantity MSO added to 10% LA-9 solution: 50 g, until hazy
Description: 10% aqueous solution of Ethoxylated Lauryl alcohol-9 mole (water soluble surfactant) was prepared in Deionized water (5 g in 45 ml). Dendrimer compounds 1 and 4 were prepared 70:30 w/w in Diethylene glycol (DEG). The 10% Ethoxylated Lauryl alcohol-9 M (LA-9) solution was combined with dendrimer DEG solution at 80:20 and 60:40 w/w (total weight of 50 g).
Methylated seed oil (MSO) (STEPOSOL-ROE-W, canola oil methyl ester, Stepan) was added dropwise under stirring to the 10% LA-9 solution (with or without dendimers), until the solution became hazy. Weight of MSO added was recorded.

SMILES: OCCN(CCO)CC(O)COCC(COCC(O)CN(CCO)CCO)(COCC(O)CN(CCO)CCO)COCC(COCC(O)CN(CCO)CCO)(COCC(O)CN(CCO)CCO)COCC(O)CN(CCO)CCO (stereo not shown) [Compound 4, 9,9′-(Oxybis(methylene))bis(9-((3-(bis(2-hydroxyethyl)amino)-2-hydroxypropoxy)methyl)-3,15-bis(2-hydroxyethyl)-7,11-dioxa-3,15-diazaheptadecane-1,5,13,17-tetraol)]
- Viscosity 0 C. ([1]; 0 C.): 744
- Viscosity 54 C. ([1]; 54 C.): 730
- Viscosity RT ([1]; RT): 730 cP
- Quantity LA-3 added to LA-9 solution ([2]; ratio 5% LA-9 solution:dendrimer/DEG solution 70:30 (w/w), 21% dendrimer (w/w)): 2.01 g
- Quantity LA-3 added to LA-9 solution ([2]; ratio 5% LA-9 solution:dendrimer/DEG solution 80:20 (w/w), 14% dendrimer (w/w)): 2.86 g
- Quantity LA-3 added to LA-9 solution ([2]; ratio 5% LA-9 solution:dendrimer/DEG solution 90:10 (w/w), 7% dendrimer (w/w)): 2.11 g
- Increase in solubilisation of Ethoxylated lauryl alcohol-3 M ([2]; over LA-9 without dendrimer): 72%
- Appearance at Addition ([3]; dendrimer 1.4% (w/w), 0.6% DEG): Clear
- Appearance/Sedimentation After 24 Hrs. ([3]; dendrimer 1.4% (w/w), 0.6% DEG): Clear
- Appearance at Addition ([3]; dendrimer 2% (w/w)): Clear
- Appearance/Sedimentation After 24 Hrs. ([3]; dendrimer 2% (w/w)): Clear
- Appearance at Addition ([3]; dendrimer 3.5% (w/w), 1.5% DEG): Clear
- Appearance/Sedimentation After 24 Hrs. ([3]; dendrimer 3.5% (w/w), 1.5% DEG): Clear
- Appearance at Addition ([3]; dendrimer 5% (w/w)): Clear
- Appearance/Sedimentation After 24 Hrs. ([3]; dendrimer 5% (w/w)): Clear
- Appearance at Addition ([3]; dendrimer 7% (w/w), 3% DEG): Clear
- Appearance/Sedimentation After 24 Hrs. ([3]; dendrimer 7% (w/w), 3% DEG): Clear
- Appearance at Addition ([3]; dendrimer 10% (w/w)): Clear
- Appearance/Sedimentation After 24 Hrs. ([3]; dendrimer 10% (w/w)): Clear
- Appearance of 2,4-D solutions in hard water ([3]; all concentrations tested (from 1.4 to 10%), 342 ppm hard water, 24 hours): clear
- Observation: sediment at 0 C. ([4]; 0 C for 7 days): No sediment at 0 C.,
- Viscosity (cP) 0 C. ([4]; 0 C., Brookfield LV viscometer): 552 cP
- Observation: sediment at RT ([4]; RT): fluffy, low sediment at RT
- Viscosity (cP) RT ([4]; RT, Brookfield LV viscometer): 574 cP
- Wetting [5]: 9.9 s
- Cloud point (temperature at which solution turned hazy) (Cloud point studies): greater than 80 °C
- Quantity Solvesso 200 added [6]: 2.15 g
- Observation: sediment at 0 C. ([7]; 0 C.): No sediment at 0 C.,
- Viscosity (cP) 0 C. ([7]; 0 C.): 514 cP
- Observation: sediment at RT ([7]; RT): fluffy, low sediment
- Viscosity (cP) RT ([7]; RT): 672 cP
- Suspensibility: Sediment [8]: <0.5 mL⁻¹
- Suspensibility: nature of sediment [8]: Compact
- Suspensibility: Column Thinning ([8]; top thinning): No
- Increase in solubilisation of Methylated seed oil in aqueous solution [9]: 110%
- Quantity MSO added to 10% LA-9 solution ([9]; ratio LA-9 solution:dendrimer/DEG solution 60:40 (w/w), 28% dendrimer (w/w)): 0.81 g
- Quantity MSO added to 10% LA-9 solution ([9]; ratio LA-9 solution:dendrimer/DEG solution 80:20 (w/w), 14% dendrimer (w/w)): 0.92 g
